Patent publication US6787570B2, “Substituted N-cycloalkyl-N-benzyl aminoalcohol compounds useful for inhibiting cholesteryl ester transfer protein activity” (Pfizer, Inc., priority 1999, dated 2004)

Biological target: T1, Human recombinant CETP (Homo sapiens, UniProt P11597)
T1 construct: made in house; host or cells: CHO cells (serum-free conditioned medium)
T1 sequence (P11597 18-493): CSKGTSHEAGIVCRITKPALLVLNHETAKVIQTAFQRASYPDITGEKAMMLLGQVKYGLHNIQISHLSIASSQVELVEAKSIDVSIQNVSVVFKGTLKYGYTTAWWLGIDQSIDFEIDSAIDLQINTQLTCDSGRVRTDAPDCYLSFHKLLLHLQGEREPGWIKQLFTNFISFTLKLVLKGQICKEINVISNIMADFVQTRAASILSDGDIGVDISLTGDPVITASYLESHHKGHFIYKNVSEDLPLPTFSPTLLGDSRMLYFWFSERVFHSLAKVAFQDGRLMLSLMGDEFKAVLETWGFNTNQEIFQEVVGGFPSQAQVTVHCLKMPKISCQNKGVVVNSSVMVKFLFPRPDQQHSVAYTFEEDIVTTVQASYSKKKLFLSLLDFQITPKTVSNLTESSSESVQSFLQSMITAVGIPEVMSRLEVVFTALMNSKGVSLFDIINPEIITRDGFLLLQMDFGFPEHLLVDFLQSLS
Assay: Assay of CETP Inhibition Using Purified Components (Reconstituted Buffer Assay)
Format: biochemical
Conditions: transfer of [3H]CE from HDL to LDL, 2 hours at 37° C.
Description: Assay of CETP Inhibition Using Purified Components (Reconstituted Buffer Assay)
The ability of compounds to inhibit CETP activity was assessed using an in vitro assay that measured the rate of transfer of radiolabeled cholesteryl ester ([^3H]CE) from HDL donor particles to LDL acceptor particles. Details of the assay are provided by Glenn, K. C. et al. (Glenn and Melton, “Quantification of Cholesteryl Ester Transfer Protein (CETP): A) CETP Activity and B) Immunochemical Assay of CETP Protein,” Meth. Enzymol., 263, 339-351 (1996)). Human recombinant CETP can be obtained from the serum-free conditioned medium of CHO cells transfected with a cDNA for CETP and purified as described by Wang, S. et al. (J. Biol. Chem. 267, 17487-17490 (1992)). To measure CETP activity, [^3H]CE-labeled-HDL, LDL, CETP and assay buffer (50 mM tris(hydroxymethyl)aminomethane, pH 7.4; 150 mM sodium chloride; 2 mM ethylenediamine-tetraacetic acid (EDTA); 1% bovine serum albumin) were incubated in a final volume of 200 μL, for 2 hours at 37° C. in 96 well plates. Inhibitors were included in the assay by diluting from a 10 mM DMSO stock solution into 16% (v/v) aqueous DMSO so that the final concentration of inhibitor was 800 μM. The inhibitors were then diluted 1:1 with CETP in assay buffer, and then 25 μL of that solution was mixed with 175 μL of lipoprotein pool for assay. Following incubation, LDL was differentially precipitated by the addition of 50 μL of 1% (w/v) dextran sulfate/0.5 M magnesium chloride, mixed by vortex, and incubated at room temperature for 10 minutes. A potion of the solution (200 μL) was transferred to a filter plate (Millipore). After filtration, the radioactivity present in the precipitated LDL was measured by liquid scintillation counting. […] The rate of [^3H]CE transfer using this assay was linear with respect to time and CETP concentration, up to 25-30% of [^3H]CE transferred.
The potency of test compounds was determined by performing the above described assay in the presence of varying concentrations of the test compounds and determining the concentration required for 50% inhibition of transfer of [3H]CE from HDL to LDL. This value was defined as the IC50. The IC50 values determined from this assay are accurate when the IC50 is greater than 10 nM.

| Structure (SMILES) | IC50 |
| --- | --- |
| CC(C)N(Cc1cccc(OC(F)(F)F)c1)CC(O)C(F)(F)F (stereo not drawn) [Example 5] | > 100 µM |
| CCCN(Cc1cccc(OC(F)(F)F)c1)CC(O)C(F)(F)F (stereo not drawn) [Example 6] | > 100 µM |
| C=C(CN(CC(O)C(F)(F)F)c1cccc(OC(F)(F)F)c1)C(=O)OC (stereo not drawn) [Example 12] | 60 µM |
| COC(=O)C=CCN(CC(O)C(F)(F)F)c1cccc(OC(F)(F)F)c1 (stereo not drawn) [Example 13] | 80 µM |
| COCC=CCN(CC(O)C(F)(F)F)c1cccc(OC(F)(F)F)c1 (stereo not drawn) [Example 14] | 55 µM |
| OC(CN(Cc1ccccc1)CC(O)C(F)(F)F)C(F)(F)F (stereo not drawn) [Example 15, 1,1′-[(Phenylmethyl)imino]bis[3,3,3-trifluoro-2-propanol]] | > 100 µM |
| OC(CN(Cc1ccc(OC(F)(F)F)cc1)CC(O)C(F)(F)F)C(F)(F)F (stereo not drawn) [Example 17] | 60 µM |

These reach a lower IC50. Values come first.

| IC50 | Structure (SMILES) |
| --- | --- |
| 15 µM | CC1CCC(N(Cc2cccc(C(F)(F)F)c2)CC(O)C(F)(F)F)CC1 (stereo not drawn) [Example 1, 3-[(4-methylcyclohexyl)[[(3-trifluoromethyl)phenyl]methyl]amino]-1,1,1-trifluoro-2-propanol] |
| 20 µM | OC(CN(Cc1cccc(OC(F)(F)F)c1)C1CC1)C(F)(F)F (stereo not drawn) [Example 4] |
| 45 µM | CC(C)=CCN(CC(O)C(F)(F)F)c1cccc(OC(F)(F)F)c1 (stereo not drawn) [Example 8] |
| 18 µM | CCCCCC=CCN(CC(O)C(F)(F)F)c1cccc(OC(F)(F)F)c1 (stereo not drawn) [Example 9] |
| 50 µM | C#CCN(CC(O)C(F)(F)F)c1cccc(OC(F)(F)F)c1 (stereo not drawn) [Example 10] |
| 45 µM | CC(C)CCN(CC(O)C(F)(F)F)c1cccc(OC(F)(F)F)c1 (stereo not drawn) [Example 11] |
| 15 µM | OC(CN(Cc1cccc(C(F)(F)F)c1)CC(O)C(F)(F)F)C(F)(F)F (stereo not drawn) [Example 16] |
| 11 µM | CCc1cc(Oc2cccc(N(CC3CCCCC3)CC(O)C(F)(F)F)c2)ccc1Cl (stereo not drawn) [Example 18, 3-[[3-(4-chloro-3-ethylphenoxy)phenyl][3-cyclohexylmethyl]amino]-1,1,1-trifluoro-2-propanol] |
